Patent US4879382A, “Pyrido(3,4-f)pyrrolo(1,2-b)(1,2,5)triazepines” (Hoechst-Roussel Pharmaceuticals, Inc., priority 1988, dated 1989)

Tests used:
[1] = dark avoidance assay (memory enhancing activity); type: in vivo; conditions: mice
Protocol: Pursuant to the dark avoidance assay, mice are tested for their ability to remember an unpleasant stimulus for a period of 24 hours. A mouse is placed in a chamber that contains a dark compartment; a strong incandescent light drives it to the dark compartment, where an electric shock is administered through metal plates on the floor. The animal is removed from the testing apparatus and tested again, 24 hours later, for the ability to remember the electric shock.

[2] = tetrabenazine induced ptosis assay (antidepressant activity); type: in vivo, mice (Charles River, CD-1); conditions: mice; for ED50: Mus musculus, ip, dose for 50% inhibition of tetrabenazine-induced ptosis
Protocol: Several of the compounds of this invention are also useful as antidepressants by virtue of their ability to elicit an antidepressant response in mammals. Antidepressant activity is determined by the tetrabenazine induced ptosis assay in mice, [International Journal of Neuropharmacology, 8, 72 (1969], a standard assay for the determination of antidepressant activity. […] Tetrabenazine methanesulfonate (76.78% as the free base) is dissolved in distilled water and the concentration of the solution is adjusted so that the dose, administered intraperitoneally (i.p.) to the animals, is 40 mg of tetrabenazine base per kg of animal body weight. The test compound is administered intraperitoneally (i.p.) or orally to the subject animals, and the tetrabenazine solution is administered 30 minutes or 60 minutes, respectively, thereafter. Tetrabenazine solution and the solvent used to dissolve, or suspend, the test compounds are administered by the same route and at the same intervals as the test compounds to a control group. […] The vehicle-control group score is used as a determination of the validity of each test. The results are discarded and the test is repeated, if the control score is determined to be less than 17. […] A linear-regression analysis is used to estimate ED50 values and 95% confidence limits.

[3] = phenyl-p-quinone writhing assay (analgesic activity); type: in vivo, mice (Charles River, CD-1); conditions: mice
Protocol: The compounds of this invention are useful as analgesic agents due to their ability to alleviate pain in mammals. The procedure employed to determine analgetic utility is a modification of the phenyl-p-quinone writhing assay in mice, a standard assay for analgetic activity [Proc. Soc. Exptl. Med., 95 729 (1957)]. Pursuant to the modified procedure phenyl-p-benzoquinone (Eastman, 12.5 mg) is dissolved in 5 ml of 95% ethanol and the solution is diluted to a total volume of 100 ml with distilled water. The solution is administered to the subject mice intraperitoneally at a dose of 10 ml per kg of body weight. A characteristic "writhe", an inward rotation of one or more feet with twisting and turning of the trunk, drawing in of the abdominal wall, lordosis and arching of the back, is produced.
A total of 28 male mice (Charles River, CD-1), weighing 18 to 30 grams, are employed for a time response. The subject animals receive food and water ad libitum. Test compounds are dissolved in distilled water, or suspended in distilled water containing one drop of a suitable surfactant, such as Tween-80.
Four groups of five animals (20 animals) are given the test compound subcutaneously (s.c.) or perorally (p.o.) at 15, 30, 45 and 60 minutes prior to administration of the phenyl-p-benzoquinone. A control group (2 animals per group) receive an equal volume of the vehicle. After the administration of the phenyl-p-benzoquinone, the mice are placed separately in one liter beakers, and after five minutes, are observed for ten minutes. The number of writhes for each animal is recorded. Thefollowing formula is used to compute the percent inhibition: [formula]
A dose range determination is run in the same manner as the time response except 10 animals per group are tested at the peak time of test drug activity. Fifty animals, 4 test drug groups, and a vehicle control are employed. Animals are dose and tested in a randomized manner. The time period with the greatest percent of inhibition is considered the peak time.

[4] = adjuvant-induced polyarthritis syndrome in rats assay (antiinflammatory activity); type: in vivo, rats (Charles River-Wistar Lewis); conditions: Rattus norvegicus, po, 504 h, read-out: Non-Injected Paw ED50
Protocol: Several of the compounds of this invention have utility as antiinflammatory agents. Antiinflammatory activity was measured pursuant to the adjuvant-induced polyarthritis syndrome in rats assay by a procedure similar to that described by C. M. Pearson and F. D. Wood, Arthritis and Rheumatism, 2, 440 (1959).
Groups of 10 male Charles River-Wistar Lewis rats weighing 150 to 175 g were individually housed and maintained on a regular rat chow diet. Water was given ad libitum. The adjuvant was prepared by suspending 75 mg of Mycobacterium butyricum (Difco Laboratories, Detroit, Mich.) in 10 ml of white paraffin oil with continuous stirring for 2 hours at room temperature prior to administration. Test compounds are prepared by suspending the drug in water, adding one drop of Tween 80 per 10 ml of suspension, and homogenizing. The adjuvant suspension (0.1 ml) was injected into the footpad of the left hind paw of the rat. Test compound suspensions were administered orally (10 ml/kg) the day before adjuvant suspension injection and the administration was continued daily for 21 days. […] Injected and non-injected paw volumes were determined on the day the adjuvant suspension was given, and on subsequent days thereafter (usually days 5, 10, 18, and 21) by the method of C. […]
The percent inhibition of paw volume (injected and non-injected paw) were calculated by the following formula: [formula] […]

Q: Which “% of Animals With Scopolamine Induced Memory Deficit Reversed” value ([1]; 2.5 mg/kg s.c.) does the source give for `CC1Nc2cnccc2N(C)n2cccc21` (centres unmarked) [10,11-Dihydro-5,10-dimethyl-5H-pyrido[3,4-f]pyrrolo[1,2-b][1,2,5]triazepine] here?
A: 33%

Q: What about the inhibition of ptosis ([2]; at a dose of 10 mg/kg i.p.) of the same molecule?
A: 47%

Q: For `CN1c2ccncc2NCc2cccn21` [10,11-Dihydro-5-methyl-5H-pyrido[3,4-f]pyrrolo[1,2-b][1,2,5]triazepine], which “% Inhibition of Writhing” value ([3]; at a dose of 12.6 mg/kg s.c. (footnote 1)) is on record?
A: 50%

Q: What does the source list for `CN(C)CCCC1Nc2cnccc2N(C)n2cccc21` (centres unmarked) [10,11-Dihydro-5-methyl-10-[3-(N,N-dimethylamino)propyl]-5H-pyrido[3,4-f]pyrrolo[1,2-b][1,2,5]triazepine]?
A: % of Animals With Scopolamine Induced Memory Deficit Reversed ([1]; 1.25 mg/kg s.c.): 27%; % Inhibition of Writhing at a Screening Dose of 20 mg/kg, s.c. [3]: 57%

Q: Which ED50 ([4]; rats, p.o., daily for 21 days, dose for 50% inhibition of adjuvant induced inflammation, non-injected paw) does the source give for `CN1CCC(C2Nc3cnccc3N(C)n3cccc32)CC1` (centres unmarked) [10,11-Dihydro-5-methyl-10-[(1-methyl)piperidin-4-yl]-5H-pyrido[3,4-f]pyrrolo[1,2-b][1,2,5]triazepine] here?
A: 53.7 mg/kg

Q: What about the ED50 [2] of the same molecule?
A: 15.7 mg/kg

Q: For `CNC(=O)N1Cc2cccn2N(C)c2ccncc21.O=C(O)/C=C\C(=O)O` [10,11-Dihydro-5-methyl-11-methylcarbamyl-5H-pyrido[3,4-f]pyrrolo[1,2-b][1,2,5]triazepine maleate], which “% Inhibition of Writhing at a Screening Dose of 20 mg/kg, s.c.” value (“% Inhibition of Writhing … s.c.” below) [3] is on record?
A: 44%

Q: With `CN1c2ccncc2NC(c2ccccc2)c2cccn21` (centres unmarked) [10,11-dihydro-5-methyl-10-phenyl-5H-pyrido[3,4-f]pyrrolo[1,2-b][1,2,5]triazepine] as the molecule, how does the “% Inhibition of Writhing … s.c.” value [3] read?
A: 47%

Q: With `CN1c2ccncc2N(C=O)Cc2cccn21.O=C(O)/C=C\C(=O)O` [11-Formyl-10,11-dihydro-5-methyl-5H-pyrido[3,4-f]pyrrolo[1,2-b][1,2,5]triazepine maleate] as the molecule, how does the “% Inhibition of Writhing … s.c.” value [3] read?
A: 47%

Q: Which ED50 [4] does the source give for `CC(=O)Oc1ccccc1C(=O)O` [Aspirin, reference compound] here?
A: 110 mg/kg

Q: For `CC(C)=CCN1CCC2(C)c3cc(O)ccc3CC1C2C` (centres unmarked) [Pentazocine, reference compound], which “% Inhibition of Writhing” value ([3]; at a dose of 1.3 mg/kg s.c. (footnote 2)) is on record?
A: 50%

Q: For `CN(C)CCC=C1c2ccccc2CCc2ccccc21` [amitryptyline, reference compound], which ED50 [2] is on record?
A: 1.5 mg/kg

Q: Which “% of Animals With Scopolamine Induced Memory Deficit Reversed” value ([1]; 0.31 mg/kg s.c.) does the source give for `CNC(=O)Oc1ccc2c(c1)[C@]1(C)CCN(C)[C@@H]1N2C` [physostigmine, reference compound] here?
A: 20%
